Patent US8846951B2 (AbbVie Inc., priority 2009, dated 2014)
Like-named read-outs stand apart in the source and are kept apart here.

How the values were obtained:
5HT2B receptors = biological target: T1, 5HT2B receptors (Homo sapiens, UniProt P41595); assay: Human 5-HT2B functional high throughput screening assay in CHO-K1 cells (calcium flux); assay type: cell-based; settings: for EC50: CHO-K1 cells, calcium flux
T1 construct: expressed in transfected cells; host or cells: CHO-K1 cells
Method in brief: (§1)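 Frozen CHO-K1 cells overexpressing the receptor were plated, serum-starved overnight, then loaded with Ca4 dye plus 2.5 mM probenecid for 60 min at room temperature. FLIPR fluorescence (ex 480/em 530 nm, 25 °C) after compound addition was normalized to serotonin; EC50 and Emax came from 4-parameter logistic fits.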

5HT2C receptors = biological target: T2, 5HT2C receptors (Homo sapiens, UniProt P28335); assay: Human 5-HT2C functional high throughput screening assay in CHO-K1 cells (calcium flux); assay type: cell-based; parameters: expressed in transfected cells; host or cells: CHO-K1 cells; settings: for EC50: CHO-K1 cells, calcium flux; for Emax: CHO-K1, 5-HT2C, maximum functional response as percentage relative to the effect of serotonin
T2 sequence (P28335 33-458): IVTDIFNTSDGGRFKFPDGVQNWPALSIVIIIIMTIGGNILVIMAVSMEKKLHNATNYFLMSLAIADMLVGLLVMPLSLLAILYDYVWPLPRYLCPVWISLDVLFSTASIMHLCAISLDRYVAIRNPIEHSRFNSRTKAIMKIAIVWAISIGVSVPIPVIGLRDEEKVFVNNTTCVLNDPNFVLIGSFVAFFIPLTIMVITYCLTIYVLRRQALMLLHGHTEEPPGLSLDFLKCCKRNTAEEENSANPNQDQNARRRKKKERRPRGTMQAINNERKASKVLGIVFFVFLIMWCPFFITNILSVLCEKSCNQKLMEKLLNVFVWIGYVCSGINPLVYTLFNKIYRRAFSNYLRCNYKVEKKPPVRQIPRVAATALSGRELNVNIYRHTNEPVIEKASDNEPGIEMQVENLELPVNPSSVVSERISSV
Method in brief: as §1

[1] = 5-HT2B agonist activity, read-out: EC50
[2] = 5-HT2B, maximum functional response as percentage relative to the effect of serotonin
[3] = 5-HT2C agonist activity, read-out: EC50

T1 sequence (P41595 whole entry): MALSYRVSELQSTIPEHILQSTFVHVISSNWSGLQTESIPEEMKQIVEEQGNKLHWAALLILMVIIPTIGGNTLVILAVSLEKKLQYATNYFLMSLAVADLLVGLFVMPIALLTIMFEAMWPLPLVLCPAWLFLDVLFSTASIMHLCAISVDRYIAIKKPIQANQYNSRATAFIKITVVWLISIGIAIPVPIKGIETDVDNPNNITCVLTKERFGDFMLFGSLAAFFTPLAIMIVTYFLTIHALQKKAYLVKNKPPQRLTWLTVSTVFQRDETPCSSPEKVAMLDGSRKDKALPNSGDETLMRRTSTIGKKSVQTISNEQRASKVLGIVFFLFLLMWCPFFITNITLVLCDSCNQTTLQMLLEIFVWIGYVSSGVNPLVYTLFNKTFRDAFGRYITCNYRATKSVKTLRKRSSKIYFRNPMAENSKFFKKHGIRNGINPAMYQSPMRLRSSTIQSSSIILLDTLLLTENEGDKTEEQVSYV

## CC(=O)c1cccc(-c2ccc3c(c2)C(=O)NC[C@@H]2CN(C)C[C@@H]32)c1 (relative stereo) [Example 237, Trans-8-(3-acetylphenyl)-2-methyl-1,2,3,3a,4,5-hexahydrobenzo[c]pyrrolo[3,4-e]azepin-6(10bH)-one]
5HT2B receptors; [1]
  EC50: > 10 µM
5HT2B receptors; [2]
  Emax: inactive
5HT2C receptors; [3]
  EC50: 0.003 µM
5HT2C receptors; read-out: Emax
  Emax: > 120%

## COc1cc(F)ccc1-c1ccc2c(c1)C(=O)NC[C@H]1CN(C)C[C@H]21 [Example 326, (3aS,10bS)-8-(4-Fluoro-2-methoxyphenyl)-2-methyl-2,3,3a,4,5,10b-hexahydropyrrolo[3,4-d][2]benzazepin-6(1H)-one]
5HT2B receptors; [1]
  EC50: > 10 µM
5HT2B receptors; [2]
  Emax: inactive
5HT2C receptors; [3]
  EC50: 0.009 µM
5HT2C receptors; read-out: Emax
  Emax: 85%

## CS(=O)(=O)c1cccc(-c2ccc3c(c2)C(=O)NC[C@@H]2CNC[C@@H]32)c1 (relative stereo) [Example 227, Trans-8-(3-(methylsulfonyl)phenyl)-1,2,3,3a,4,5-hexahydrobenzo[c]pyrrolo[3,4-e]azepin-6(10bH)-one]
5HT2B receptors; [1]
  EC50: > 10 µM
5HT2B receptors; [2]
  Emax: inactive
5HT2C receptors; [3]
  EC50: 0.0008 µM
5HT2C receptors; read-out: Emax
  Emax: > 120%

## CC(O)c1cccc(-c2cccc3c2OCC[C@H]2CNC[C@H]32)c1 (relative stereo) [Example 367, 1-{3-[Trans-2,3,3a,4,5,10b-hexahydro-1H-[1]benzoxepino[4,5-c]pyrrol-7-yl]phenyl}ethanol]
5HT2B receptors; [1]
  EC50: > 10 µM
5HT2B receptors; [2]
  Emax: inactive
5HT2C receptors; [3]
  EC50: 0.02 µM
5HT2C receptors; read-out: Emax
  Emax: 90%

## COc1ccc(-c2ccc3c(c2)C(=O)NC[C@H]2CN(C)C[C@H]32)c(F)c1 [Example 325, (3aS,10bS)-8-(2-Fluoro-4-methoxyphenyl)-2-methyl-2,3,3a,4,5,10b-hexahydropyrrolo[3,4-d][2]benzazepin-6(1H)-one]
5HT2B receptors; [1]
  EC50: > 10 µM
5HT2B receptors; [2]
  Emax: inactive
5HT2C receptors; [3]
  EC50: 0.002 µM
5HT2C receptors; read-out: Emax
  Emax: 90%

## CCCC(O)c1cccc(-c2ccc3c(c2)C(=O)NC[C@H]2CN(C)C[C@H]32)c1 (stereo partly drawn) [Example 313, (3aS,10bS)-8-[3-(1-Hydroxybutyl)phenyl]-2-methyl-2,3,3a,4,5,10b-hexahydropyrrolo[3,4-d][2]benzazepin-6(1H)-one]
5HT2B receptors; [1]
  EC50: > 10 µM
5HT2B receptors; [2]
  Emax: inactive
5HT2C receptors; [3]
  EC50: 0.0008 µM
5HT2C receptors; read-out: Emax
  Emax: 95%

## Cc1noc(C)c1-c1ccc2c(c1)C(=O)NC[C@@H]1CNC[C@@H]21 (single isomer, unassigned) [Example 245, Trans-8-(3,5-dimethylisoxazol-4-yl)-1,2,3,3a,4,5-hexahydrobenzo[e]pyrrolo[3,4-c]azepin-6(10bH)-one]
5HT2B receptors; CHO-K1
  Emax: 15%
5HT2B receptors; EC50, 5-HT2B agonist activity
  EC50: 2 µM
5HT2C receptors
  Emax: 100%
5HT2C receptors; EC50, 5-HT2C agonist activity
  EC50: 0.05 µM

## CC(O)c1cc(-c2ccc3c(c2)C(=O)NC[C@H]2CN(C)C[C@H]32)ccc1F (mixture of isomers) [Example 307, (3aS,10bS)-8-[4-Fluoro-3-(1-hydroxyethyl)phenyl]-2-methyl-2,3,3a,4,5,10b-hexahydropyrrolo[3,4-d][2]benzazepin-6(1H)-one]
5HT2B receptors; [1]
  EC50: > 10 µM
5HT2B receptors; [2]
  Emax: inactive
5HT2C receptors; [3]
  EC50: 0.0007 µM
5HT2C receptors; read-out: Emax
  Emax: 100%

## COC(=O)c1cccc2c1NCC[C@@H]1CNC[C@@H]21 (relative stereo) [Example 402, Methyl trans-1,2,3,3a,4,5,6,10b-octahydropyrrolo[3,4-d][1]benzazepine-7-carboxylate]
5HT2B receptors; CHO-K1
  Emax: 75%
5HT2B receptors; EC50, 5-HT2B agonist activity
  EC50: 0.2 µM
5HT2C receptors
  Emax: 100%
5HT2C receptors; EC50, 5-HT2C agonist activity
  EC50: 0.03 µM

## CN1C[C@@H]2CNC(=O)c3cc(-c4ccc5c(c4)C(O)CC5)ccc3[C@H]2C1 (stereo partly drawn) [Example 310, (3aS,10bS)-8-(3-Hydroxy-2,3-dihydro-1H-inden-5-yl)-2-methyl-2,3,3a,4,5,10b-hexahydropyrrolo[3,4-d][2]benzazepin-6(1H)-one]
5HT2B receptors; [1]
  EC50: > 10 µM
5HT2B receptors; [2]
  Emax: inactive
5HT2C receptors; [3]
  EC50: 0.0007 µM
5HT2C receptors; read-out: Emax
  Emax: 100%

## CN1C[C@H]2CNC(=O)c3cc(-c4cccc(C(C)(O)C(F)(F)F)c4)ccc3[C@@H]2C1 (relative stereo) [Example 185, Trans-2-methyl-8-(3-(1,1,1-trifluoro-2-hydroxypropan-2-yl)phenyl)-1,2,3,3a,4,5-hexahydrobenzo[e]pyrrolo[3,4-c]azepin-6(10bH)-one]
5HT2B receptors; [1]
  EC50: > 10 µM
5HT2B receptors; [2]
  Emax: inactive
5HT2C receptors; [3]
  EC50: 0.001 µM
5HT2C receptors; read-out: Emax
  Emax: 120%

## O=S(=O)(c1ccc(Br)s1)N1Cc2cccnc2[C@@H]2CNC[C@H]2C1 (relative stereo) [Example 360, Trans-6-[(5-bromo-2-thienyl)sulfonyl]-5,6,7,7a,8,9,10,10a-octahydropyrido[3,2-c]pyrrolo[3,4-e]azepine]
5HT2B receptors; CHO-K1
  Emax: 20%
5HT2B receptors; EC50, 5-HT2B agonist activity
  EC50: 0.3 µM
5HT2C receptors
  Emax: 80%
5HT2C receptors; EC50, 5-HT2C agonist activity
  EC50: 0.01 µM

## CN1C[C@H]2CNC(=O)c3cc(-c4ccc(C(F)(F)F)cc4)ccc3[C@@H]2C1 (relative stereo) [Example 79, Trans-2-methyl-8-(4-(trifluoromethyl)phenyl)-1,2,3,3a,4,5-hexahydrobenzo[e]pyrrolo[3,4-c]azepin-6(10bH)-one]
5HT2B receptors; [1]
  EC50: > 10 µM
5HT2B receptors; [2]
  Emax: inactive
5HT2C receptors; [3]
  EC50: 0.03 µM
5HT2C receptors; read-out: Emax
  Emax: > 120%

## CN1C[C@H]2CNC(=O)c3c(-c4ccccc4)cccc3[C@@H]2C1 (relative stereo) [Example 114, Trans-2-methyl-7-phenyl-1,2,3,3a,4,5-hexahydrobenzo[c]pyrrolo[3,4-e]azepin-6(10bH)-one]
5HT2B receptors; [1]
  EC50: > 10 µM
5HT2B receptors; [2]
  Emax: inactive
5HT2C receptors; [3]
  EC50: 5 µM
5HT2C receptors; read-out: Emax
  Emax: 80%

## CC1(C)CCC(Oc2ccc3c(c2)C(=O)NC[C@@H]2CNC[C@@H]32)CC1 (relative stereo) [Example 246, Trans-8-(4,4-dimethylcyclohexyloxy)-1,2,3,3a,4,5-hexahydrobenzo[e]pyrrolo[3,4-c]azepin-6(10bH)-one]
5HT2B receptors; [2]
  Emax: inactive
5HT2B receptors; EC50, 5-HT2B agonist activity
  EC50: > 10 µM
5HT2C receptors
  Emax: 100%
5HT2C receptors; EC50, 5-HT2C agonist activity
  EC50: 0.04 µM

## CN1CC[C@@H]2CNC[C@H]2c2cccc(Cl)c21 (relative stereo) [Example 375, Trans-7-chloro-6-methyl-1,2,3,3a,4,5,6,10b-octahydropyrrolo[3,4-d][1]benzazepine]
5HT2B receptors; CHO-K1
  Emax: 95%
5HT2B receptors; EC50, 5-HT2B agonist activity
  EC50: 0.01 µM
5HT2C receptors
  Emax: 100%
5HT2C receptors; EC50, 5-HT2C agonist activity
  EC50: 0.0003 µM

## Nc1ccc2c(c1)C(=O)NC[C@@H]1CNC[C@H]21 (relative stereo) [Example 145, Cis-8-amino-1,2,3,3a,4,5-hexahydrobenzo[e]pyrrolo[3,4-c]azepin-6(10bH)-one]
5HT2B receptors; [2]
  Emax: inactive
5HT2B receptors; EC50, 5-HT2B agonist activity
  EC50: > 10 µM
5HT2C receptors
  Emax: 15%
5HT2C receptors; EC50, 5-HT2C agonist activity
  EC50: 3 µM

## CN1C[C@H]2CNC(=O)c3cc(-c4ccc5ccccc5c4)ccc3[C@@H]2C1 (relative stereo) [Example 80, Trans-2-methyl-8-(naphthalen-2-yl)-1,2,3,3a,4,5-hexahydrobenzo[e]pyrrolo[3,4-c]azepin-6(10bH)-one]
5HT2B receptors; [1]
  EC50: > 10 µM
5HT2B receptors; [2]
  Emax: inactive
5HT2C receptors; [3]
  EC50: 0.022 µM
5HT2C receptors; read-out: Emax
  Emax: > 120%

## CN1C[C@@H]2CCOc3c(-c4ccc(F)cc4)cccc3[C@H]2C1 (relative stereo) [Example 400, Trans-7-(4-fluorophenyl)-2-methyl-2,3,3a,4,5,10b-hexahydro-1H-[1]benzoxepino[4,5-c]pyrrole]
5HT2B receptors; [1]
  EC50: > 10 µM
5HT2B receptors; [2]
  Emax: inactive
5HT2C receptors; [3]
  EC50: 0.8 µM
5HT2C receptors; read-out: Emax
  Emax: 70%
